Tests used:
Experiment in all cases: SILAC LC-MS ABPP
Assay type in all cases: cell-based
Conditions in all cases: 25 μM 2 h, live DM93 cells
[1] = target: T1, O00267 (Homo sapiens, UniProt O00267)
T1 construct: endogenous in cells; host or cells: DM93
Outline: (§1)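 Chemical proteomics in DM93 melanoma, light/heavy SILAC pairs. Vehicle versus 25 μM covalent sulfonyl-triazole for 2 h (37 °C) in serum-free medium was followed by 100 μM HHS-475 labelling for 2 h; tyrosine sites were identified and quantified by LC-MS/MS of avidin-enriched tryptic peptides.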

[2] = target: T2, Q12931 (Homo sapiens, UniProt Q12931)
T2 construct: performing SuTEx compound screening directly in cells; endogenous in cells; host or cells: DM93 cells (SILAC)
Outline: as §1

[3] = target: T3, Q92734 (Homo sapiens, UniProt Q92734)
T3 construct: endogenous in cells; host or cells: DM93 cells (SILAC), live-cell treatment
Outline: as §1

[4] = target: T4, P12081 (Homo sapiens, UniProt P12081)
T4 construct: endogenous in cells; host or cells: DM93 cells (SILAC)
Outline: as §1

[5] = target: T5, P25789 (Homo sapiens, UniProt P25789)
T5 construct: endogenous in cells; host or cells: DM93 (SILAC)
Outline: as §1

[6] = target: T6, Q01082 (Homo sapiens, UniProt Q01082)
T6 construct: performing SuTEx compound screening directly in cells; endogenous in cells; host or cells: DM93 cells (SILAC)
Outline: as §1

[7] = target: T7, P60900 (Homo sapiens, UniProt P60900)
T7 construct: endogenous in cells; host or cells: DM93 cells (SILAC)
Outline: as §1

[8] = target: T8, Q13033 (Homo sapiens, UniProt Q13033)
T8 construct: performing SuTEx compound screening directly in cells; endogenous in cells; host or cells: DM93 cells (SILAC), soluble fraction
Outline: as §1

[9] = target: T9, P78527 (Homo sapiens, UniProt P78527)
T9 construct: performing SuTEx compound screening directly in cells; endogenous in cells; host or cells: DM93 cells (SILAC)
Outline: as §1

[10] = target: T10, Q92889 (Homo sapiens, UniProt Q92889)
T10 construct: endogenous in cells; host or cells: DM93 cells (SILAC), live-cell treatment
Outline: as §1

[11] = target: T11, P12268 (Homo sapiens, UniProt P12268)
T11 construct: endogenous in cells; host or cells: DM93 cells (SILAC)
Outline: as §1

[12] = target: T12, Q9H3P2 (Homo sapiens, UniProt Q9H3P2)
T12 construct: endogenous in cells; host or cells: DM93 cells (SILAC), treated live; soluble proteome analysed
Outline: as §1

[13] = target: T13, P50851 (Homo sapiens, UniProt P50851)
T13 construct: Probe-modified proteins from the soluble fraction were conjugated to a desthiobiotin-azide tag; endogenous in cells; host or cells: DM93 cells (SILAC)
Outline: as §1

[14] = target: T14, Q00535 (Homo sapiens, UniProt Q00535)
T14 construct: performing SuTEx compound screening directly in cells; endogenous in cells; host or cells: DM93 cells (SILAC)
Outline: as §1

[15] = target: T15, P07814 (Homo sapiens, UniProt P07814)
T15 construct: endogenous in cells; host or cells: DM93 cells (SILAC)
Outline: as §1

[16] = target: T16, P62847 (Homo sapiens, UniProt P62847)
T16 construct: performing SuTEx compound screening directly in cells; endogenous in cells; host or cells: DM93 cells (SILAC)
Outline: as §1

[17] = target: T17, O43390 (Homo sapiens, UniProt O43390)
T17 construct: endogenous in cells; host or cells: DM93
Outline: as §1

T4 sequence (P12081 whole entry): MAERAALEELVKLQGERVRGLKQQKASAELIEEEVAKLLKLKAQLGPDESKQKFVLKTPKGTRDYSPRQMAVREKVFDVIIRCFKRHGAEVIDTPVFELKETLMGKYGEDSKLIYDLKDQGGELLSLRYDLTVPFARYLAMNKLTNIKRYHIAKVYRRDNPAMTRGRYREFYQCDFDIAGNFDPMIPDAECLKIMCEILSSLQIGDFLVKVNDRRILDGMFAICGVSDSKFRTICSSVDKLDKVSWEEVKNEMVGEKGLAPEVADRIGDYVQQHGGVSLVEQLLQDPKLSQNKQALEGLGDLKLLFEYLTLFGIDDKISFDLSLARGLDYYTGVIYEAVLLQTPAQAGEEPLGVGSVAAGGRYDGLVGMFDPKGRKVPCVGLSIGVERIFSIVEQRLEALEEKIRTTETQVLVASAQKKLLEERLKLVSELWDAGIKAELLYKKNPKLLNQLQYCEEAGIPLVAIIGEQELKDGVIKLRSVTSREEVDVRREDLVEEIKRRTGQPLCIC
T14 sequence (Q00535 whole entry): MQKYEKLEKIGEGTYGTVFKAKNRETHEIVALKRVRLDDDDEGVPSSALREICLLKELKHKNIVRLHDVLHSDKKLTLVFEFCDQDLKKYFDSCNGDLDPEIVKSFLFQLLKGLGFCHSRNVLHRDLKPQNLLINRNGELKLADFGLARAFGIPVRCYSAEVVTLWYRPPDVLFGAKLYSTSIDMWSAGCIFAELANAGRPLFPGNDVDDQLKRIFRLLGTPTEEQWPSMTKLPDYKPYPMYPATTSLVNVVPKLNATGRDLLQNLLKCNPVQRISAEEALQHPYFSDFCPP
T13 sequence (P50851 whole entry): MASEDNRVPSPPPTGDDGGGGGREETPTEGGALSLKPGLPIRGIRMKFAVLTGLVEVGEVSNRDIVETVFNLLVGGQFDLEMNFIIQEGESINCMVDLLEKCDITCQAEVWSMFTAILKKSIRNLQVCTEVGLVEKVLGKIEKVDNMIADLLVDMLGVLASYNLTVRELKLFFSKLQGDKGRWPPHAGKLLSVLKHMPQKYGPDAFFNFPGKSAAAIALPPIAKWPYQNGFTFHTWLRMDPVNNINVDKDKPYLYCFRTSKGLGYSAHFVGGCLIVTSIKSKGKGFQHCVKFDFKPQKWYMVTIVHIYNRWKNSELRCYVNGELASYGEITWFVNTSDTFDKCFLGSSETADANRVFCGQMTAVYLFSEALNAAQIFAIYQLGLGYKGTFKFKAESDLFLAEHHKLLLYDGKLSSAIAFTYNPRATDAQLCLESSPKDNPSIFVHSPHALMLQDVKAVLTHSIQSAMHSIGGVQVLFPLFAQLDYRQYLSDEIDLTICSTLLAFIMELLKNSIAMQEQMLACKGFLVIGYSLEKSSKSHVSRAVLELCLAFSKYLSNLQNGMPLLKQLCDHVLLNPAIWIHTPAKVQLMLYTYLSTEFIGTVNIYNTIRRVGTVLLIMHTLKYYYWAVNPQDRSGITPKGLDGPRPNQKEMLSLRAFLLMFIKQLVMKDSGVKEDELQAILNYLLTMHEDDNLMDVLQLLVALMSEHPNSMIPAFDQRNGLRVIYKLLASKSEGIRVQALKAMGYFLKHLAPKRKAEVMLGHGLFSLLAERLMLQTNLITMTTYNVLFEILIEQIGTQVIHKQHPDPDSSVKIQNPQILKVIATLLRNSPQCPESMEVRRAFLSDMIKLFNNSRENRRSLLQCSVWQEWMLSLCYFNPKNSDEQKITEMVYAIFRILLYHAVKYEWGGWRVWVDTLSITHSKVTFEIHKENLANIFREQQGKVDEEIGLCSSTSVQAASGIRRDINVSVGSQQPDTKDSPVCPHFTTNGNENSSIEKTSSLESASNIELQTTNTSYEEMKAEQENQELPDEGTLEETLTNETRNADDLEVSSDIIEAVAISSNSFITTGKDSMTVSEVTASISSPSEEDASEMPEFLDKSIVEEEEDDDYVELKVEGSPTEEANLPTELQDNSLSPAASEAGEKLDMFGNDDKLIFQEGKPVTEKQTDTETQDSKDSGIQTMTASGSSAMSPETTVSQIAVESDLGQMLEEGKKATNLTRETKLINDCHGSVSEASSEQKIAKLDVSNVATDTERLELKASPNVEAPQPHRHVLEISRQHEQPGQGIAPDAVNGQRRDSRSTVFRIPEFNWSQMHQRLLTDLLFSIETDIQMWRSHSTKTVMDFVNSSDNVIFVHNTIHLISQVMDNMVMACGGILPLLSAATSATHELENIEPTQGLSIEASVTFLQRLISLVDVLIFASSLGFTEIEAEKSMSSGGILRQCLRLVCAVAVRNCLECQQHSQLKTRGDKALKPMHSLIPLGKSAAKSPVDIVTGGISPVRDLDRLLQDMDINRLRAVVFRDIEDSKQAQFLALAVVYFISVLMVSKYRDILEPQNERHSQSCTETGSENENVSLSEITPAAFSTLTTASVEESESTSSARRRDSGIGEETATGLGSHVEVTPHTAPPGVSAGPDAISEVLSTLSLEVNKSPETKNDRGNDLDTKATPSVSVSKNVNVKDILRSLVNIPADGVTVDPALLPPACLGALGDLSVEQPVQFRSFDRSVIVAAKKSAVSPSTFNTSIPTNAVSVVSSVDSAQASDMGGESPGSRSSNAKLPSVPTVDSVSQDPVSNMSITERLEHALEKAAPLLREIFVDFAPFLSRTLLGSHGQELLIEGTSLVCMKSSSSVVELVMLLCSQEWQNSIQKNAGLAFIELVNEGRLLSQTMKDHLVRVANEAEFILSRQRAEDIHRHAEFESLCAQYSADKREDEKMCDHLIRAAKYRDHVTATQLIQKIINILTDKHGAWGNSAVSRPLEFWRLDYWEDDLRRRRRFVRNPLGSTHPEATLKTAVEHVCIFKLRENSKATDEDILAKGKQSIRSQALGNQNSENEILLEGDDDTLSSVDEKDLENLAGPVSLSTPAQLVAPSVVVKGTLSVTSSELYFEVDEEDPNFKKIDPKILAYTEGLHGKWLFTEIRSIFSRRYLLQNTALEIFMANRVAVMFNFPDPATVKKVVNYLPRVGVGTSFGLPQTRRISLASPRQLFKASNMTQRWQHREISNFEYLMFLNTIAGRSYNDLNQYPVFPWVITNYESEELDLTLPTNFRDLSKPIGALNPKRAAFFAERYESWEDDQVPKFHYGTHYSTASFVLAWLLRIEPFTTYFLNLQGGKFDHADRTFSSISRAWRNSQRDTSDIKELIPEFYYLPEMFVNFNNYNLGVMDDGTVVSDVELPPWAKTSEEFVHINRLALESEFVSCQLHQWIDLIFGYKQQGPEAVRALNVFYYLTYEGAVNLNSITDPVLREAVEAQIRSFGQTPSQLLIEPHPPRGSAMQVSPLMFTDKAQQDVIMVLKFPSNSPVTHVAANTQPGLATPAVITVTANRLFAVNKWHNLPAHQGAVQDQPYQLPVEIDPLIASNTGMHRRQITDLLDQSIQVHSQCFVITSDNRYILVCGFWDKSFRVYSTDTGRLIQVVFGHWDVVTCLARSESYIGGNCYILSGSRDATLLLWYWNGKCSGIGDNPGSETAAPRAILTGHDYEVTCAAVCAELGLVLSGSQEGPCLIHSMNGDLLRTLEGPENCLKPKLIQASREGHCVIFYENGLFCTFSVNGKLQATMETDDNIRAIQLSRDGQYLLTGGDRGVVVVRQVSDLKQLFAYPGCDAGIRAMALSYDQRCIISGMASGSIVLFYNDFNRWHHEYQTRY
T17 sequence (O43390 whole entry): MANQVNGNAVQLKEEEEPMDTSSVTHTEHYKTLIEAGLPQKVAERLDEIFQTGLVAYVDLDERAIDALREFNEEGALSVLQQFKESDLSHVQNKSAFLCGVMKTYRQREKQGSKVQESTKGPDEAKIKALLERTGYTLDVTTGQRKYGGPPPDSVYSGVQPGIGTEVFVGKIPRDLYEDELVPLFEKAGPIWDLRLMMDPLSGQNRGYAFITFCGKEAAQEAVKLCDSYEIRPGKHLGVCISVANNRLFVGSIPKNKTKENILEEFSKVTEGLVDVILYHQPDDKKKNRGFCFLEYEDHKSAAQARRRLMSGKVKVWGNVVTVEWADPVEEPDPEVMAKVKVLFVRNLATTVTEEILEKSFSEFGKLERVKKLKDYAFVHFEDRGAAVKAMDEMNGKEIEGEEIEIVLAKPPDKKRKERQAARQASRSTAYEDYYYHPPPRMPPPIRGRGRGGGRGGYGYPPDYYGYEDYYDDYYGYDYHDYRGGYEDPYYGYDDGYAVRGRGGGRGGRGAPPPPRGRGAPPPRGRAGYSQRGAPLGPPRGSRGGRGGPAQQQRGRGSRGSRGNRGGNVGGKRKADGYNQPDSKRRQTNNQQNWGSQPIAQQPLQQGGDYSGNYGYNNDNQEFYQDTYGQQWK
T2 sequence (Q12931 60-704): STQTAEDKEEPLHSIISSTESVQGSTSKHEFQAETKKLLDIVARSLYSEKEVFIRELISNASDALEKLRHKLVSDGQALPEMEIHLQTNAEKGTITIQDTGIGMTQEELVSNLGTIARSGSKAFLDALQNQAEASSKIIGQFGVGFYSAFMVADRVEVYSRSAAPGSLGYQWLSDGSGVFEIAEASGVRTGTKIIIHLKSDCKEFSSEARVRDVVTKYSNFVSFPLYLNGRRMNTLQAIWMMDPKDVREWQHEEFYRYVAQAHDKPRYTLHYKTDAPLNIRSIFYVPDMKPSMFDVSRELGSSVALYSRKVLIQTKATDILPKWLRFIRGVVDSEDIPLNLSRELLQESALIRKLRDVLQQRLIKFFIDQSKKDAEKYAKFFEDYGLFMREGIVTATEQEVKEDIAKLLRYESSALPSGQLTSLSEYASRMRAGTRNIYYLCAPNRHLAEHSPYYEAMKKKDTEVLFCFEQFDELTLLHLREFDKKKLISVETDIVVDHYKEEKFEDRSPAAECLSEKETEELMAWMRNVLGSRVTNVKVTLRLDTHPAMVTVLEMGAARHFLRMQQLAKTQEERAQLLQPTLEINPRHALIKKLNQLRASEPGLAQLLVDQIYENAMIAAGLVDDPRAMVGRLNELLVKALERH

O=C(c1ccc(S(=O)(=O)n2cncn2)cc1)N1CCC(c2ccccc2)CC1 [HHS-0701, (4-((1H-1,2,4-triazol-1-yl)sulfonyl)phenyl)(4-phenylpiperidin-1-yl)methanone]
liganded tyrosine site 249 [1]: HHS0701.Y (tyrosine sites that showed >80% reductions (SR >5) in probe labeling in cells treated with compounds (liganded sites))
liganded tyrosine site 559 [2]: HHS0701.Y (tyrosine sites that showed >80% reductions (SR >5) in probe labeling in cells treated with compounds (liganded sites))
liganded tyrosine site 392 [3]: HHS0701.Y (tyrosine sites that showed >80% reductions (SR >5) in probe labeling in cells treated with compounds (liganded sites))
liganded tyrosine site 168 [4]: HHS0701.Y (tyrosine sites that showed >80% reductions (SR >5) in probe labeling in cells treated with compounds (liganded sites))
liganded tyrosine site 172 [4]: HHS0701.Y (tyrosine sites that showed >80% reductions (SR >5) in probe labeling in cells treated with compounds (liganded sites))

O=C(NC1CC1)c1ccc(S(=O)(=O)n2cncn2)cc1 [HHS-0101, 4-((1H-1,2,4-triazol-1-yl)sulfonyl)-N-cyclopropylbenzamide]
liganded tyrosine site 19 [5]: HHS0101.Y (tyrosine sites that showed >80% reductions (SR >5) in probe labeling in cells treated with compounds (liganded sites))
liganded tyrosine site 66 [5]: HHS0101.Y|HHS0201.Y|HHS0301.Y (tyrosine sites that showed >80% reductions (SR >5) in probe labeling in cells treated with compounds (liganded sites))
liganded tyrosine site 777 [6]: HHS0101.Y|HHS0201.Y|HHS0401.Y (tyrosine sites that showed >80% reductions (SR >5) in probe labeling in cells treated with compounds (liganded sites))
liganded tyrosine site 103 [7]: HHS0101.Y|HHS0201.Y|HHS0401.Y (tyrosine sites that showed >80% reductions (SR >5) in probe labeling in cells treated with compounds (liganded sites))
liganded tyrosine site 137 [8]: HHS0101.Y|HHS0401.Y (tyrosine sites that showed >80% reductions (SR >5) in probe labeling in cells treated with compounds (liganded sites))

O=C(NC1CCCCC1)c1ccc(S(=O)(=O)n2cncn2)cc1 [HHS-0301, 4-((1H-1,2,4-triazol-1-yl)sulfonyl)-N-cyclohexylbenzamide]
liganded tyrosine site 701 [9]: HHS0301.Y (tyrosine sites that showed >80% reductions (SR >5) in probe labeling in cells treated with compounds (liganded sites))
liganded tyrosine site 344 [10]: HHS0301.Y|HHS0401.Y (tyrosine sites that showed >80% reductions (SR >5) in probe labeling in cells treated with compounds (liganded sites))

O=C(NCc1ccccc1)c1ccc(S(=O)(=O)n2cncn2)cc1 [HHS-0401, 4-((1H-1,2,4-triazol-1-yl)sulfonyl)-N-benzylbenzamide]
liganded tyrosine site 233 [11]: HHS0401.Y (tyrosine sites that showed >80% reductions (SR >5) in probe labeling in cells treated with compounds (liganded sites))
liganded tyrosine site 324 [12]: HHS0401.Y|HHS0701.Y (tyrosine sites that showed >80% reductions (SR >5) in probe labeling in cells treated with compounds (liganded sites))
liganded tyrosine site 2656 [13]: HHS0401.Y (tyrosine sites that showed >80% reductions (SR >5) in probe labeling in cells treated with compounds (liganded sites))

O=C(NCC1CC1)c1ccc(S(=O)(=O)n2cncn2)cc1 [HHS-0201, 4-((1H-1,2,4-triazol-1-yl)sulfonyl)-N-(cyclopropylmethyl)benzamide]
liganded tyrosine site 242 [14]: HHS0201.Y (tyrosine sites that showed >80% reductions (SR >5) in probe labeling in cells treated with compounds (liganded sites))
liganded tyrosine site 864 [15]: HHS0201.Y (tyrosine sites that showed >80% reductions (SR >5) in probe labeling in cells treated with compounds (liganded sites))
liganded tyrosine site 81 [16]: HHS0201.Y (tyrosine sites that showed >80% reductions (SR >5) in probe labeling in cells treated with compounds (liganded sites))
liganded tyrosine site 578 [17]: HHS0201.Y|HHS0301.Y|HHS0401.Y|HHS0701.Y (tyrosine sites that showed >80% reductions (SR >5) in probe labeling in cells treated with compounds (liganded sites))

From patent US20240210412A1, “SULFONYL-TRIAZOLE COMPOUNDS USEFUL AS LIGANDS AND INHIBITORS OF PROSTAGLANDIN REDUCTASE 2” (University of Virginia Patent Foundation, priority 2021, published 2024)
